Measurements as given in US20250215012A1, “IKZF2 DEGRADERS AND USES THEREOF” (REGENTS OF THE UNIVERSITY OF MICHIGAN, priority 2022, published 2025).

Biological target: IKZF2 (Homo sapiens (Human), UniProt Q96SW2+Q9UKS7)
Test: IKZF2 HiBiT Assay (Jurkat-IKZF2-HiBiT cell line)
Format: cell-based
Details: Jurkat-IKZF2-HiBiT cells, 24 hours; for DC50: read-out: HiBit assay degradation analysis DC50; for Dmax: read-out: HiBit assay degradation analysis Dmax
Summary of the method: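 IKZF2 degradation was assessed as HiBiT luminescence in Jurkat-IKZF2-HiBiT cells, using lytic detection after 24 h of compound treatment at 37 °C, 5% CO2.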

IKZF2, sequence (Q9UKS7 whole entry): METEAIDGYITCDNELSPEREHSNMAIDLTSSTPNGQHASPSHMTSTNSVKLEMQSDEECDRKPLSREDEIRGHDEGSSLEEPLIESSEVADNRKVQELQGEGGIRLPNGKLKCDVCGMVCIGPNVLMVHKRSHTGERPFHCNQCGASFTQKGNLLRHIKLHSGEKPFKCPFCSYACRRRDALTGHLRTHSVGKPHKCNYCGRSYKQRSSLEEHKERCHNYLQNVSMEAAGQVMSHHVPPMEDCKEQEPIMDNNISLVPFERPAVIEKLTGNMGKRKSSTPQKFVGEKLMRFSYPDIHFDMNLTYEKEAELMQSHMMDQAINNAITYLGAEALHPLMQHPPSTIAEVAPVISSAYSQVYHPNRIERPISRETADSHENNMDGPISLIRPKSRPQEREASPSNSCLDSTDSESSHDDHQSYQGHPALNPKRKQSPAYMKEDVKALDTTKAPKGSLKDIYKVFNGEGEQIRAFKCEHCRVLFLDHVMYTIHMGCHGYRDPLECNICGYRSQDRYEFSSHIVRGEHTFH
IKZF2, sequence (Q96SW2 whole entry): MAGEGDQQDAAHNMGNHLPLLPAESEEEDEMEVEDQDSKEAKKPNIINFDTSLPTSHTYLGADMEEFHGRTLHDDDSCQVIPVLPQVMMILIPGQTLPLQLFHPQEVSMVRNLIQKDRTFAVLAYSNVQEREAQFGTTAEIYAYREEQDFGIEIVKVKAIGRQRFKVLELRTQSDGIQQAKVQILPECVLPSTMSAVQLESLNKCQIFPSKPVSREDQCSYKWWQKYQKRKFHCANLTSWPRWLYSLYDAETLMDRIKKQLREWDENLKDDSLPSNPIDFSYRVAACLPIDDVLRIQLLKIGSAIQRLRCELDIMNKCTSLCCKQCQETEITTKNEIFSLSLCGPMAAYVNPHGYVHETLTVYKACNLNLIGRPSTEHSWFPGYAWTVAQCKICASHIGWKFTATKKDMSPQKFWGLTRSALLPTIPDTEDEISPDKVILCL
IKZF2, sequence (Q16531 whole entry partner): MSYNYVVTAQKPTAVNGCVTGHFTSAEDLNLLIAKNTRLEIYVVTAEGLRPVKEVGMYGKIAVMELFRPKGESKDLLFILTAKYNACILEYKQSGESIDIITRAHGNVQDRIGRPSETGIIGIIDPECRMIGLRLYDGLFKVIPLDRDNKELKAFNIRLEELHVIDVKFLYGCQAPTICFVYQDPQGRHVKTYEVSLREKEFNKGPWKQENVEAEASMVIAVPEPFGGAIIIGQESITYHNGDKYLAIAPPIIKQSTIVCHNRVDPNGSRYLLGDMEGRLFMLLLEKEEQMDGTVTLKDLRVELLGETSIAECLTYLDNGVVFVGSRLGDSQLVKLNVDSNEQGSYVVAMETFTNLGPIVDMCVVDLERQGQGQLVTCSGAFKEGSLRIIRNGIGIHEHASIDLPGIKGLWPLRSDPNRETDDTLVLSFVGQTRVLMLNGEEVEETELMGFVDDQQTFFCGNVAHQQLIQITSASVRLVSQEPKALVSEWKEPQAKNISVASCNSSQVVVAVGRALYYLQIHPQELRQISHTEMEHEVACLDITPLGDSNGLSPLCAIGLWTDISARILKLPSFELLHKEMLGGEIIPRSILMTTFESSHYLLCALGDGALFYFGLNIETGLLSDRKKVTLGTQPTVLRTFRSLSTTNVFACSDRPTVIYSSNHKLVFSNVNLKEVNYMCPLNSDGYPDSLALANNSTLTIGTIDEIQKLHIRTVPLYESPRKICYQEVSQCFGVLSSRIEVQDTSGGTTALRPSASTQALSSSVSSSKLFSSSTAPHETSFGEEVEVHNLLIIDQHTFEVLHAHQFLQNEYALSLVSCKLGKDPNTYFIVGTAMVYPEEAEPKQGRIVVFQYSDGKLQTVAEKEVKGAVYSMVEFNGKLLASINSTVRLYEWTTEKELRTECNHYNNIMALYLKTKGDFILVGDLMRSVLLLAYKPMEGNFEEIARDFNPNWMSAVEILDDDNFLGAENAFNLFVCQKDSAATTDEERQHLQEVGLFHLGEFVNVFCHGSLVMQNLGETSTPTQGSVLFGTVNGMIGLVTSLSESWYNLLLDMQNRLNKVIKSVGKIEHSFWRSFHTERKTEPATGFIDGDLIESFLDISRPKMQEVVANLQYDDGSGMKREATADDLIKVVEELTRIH

Q: What does the source list for `COc1cc(CN2CCC3(CC2)COc2c3ccc3c2CN([C@H]2CCC(=O)NC2=O)C3=O)cc(-c2cnn(C)c2)c1` [Compound A280, (S)-3-(1′-(3-methoxy-5-(1-methyl-1H-pyrazol-4-yl)benzyl)-6-oxo-6,8-dihydro-2H,7H-spiro[furo[2,3-e]isoindole-3,4′-piperidin]-7-yl)piperidine-2,6-dione]?
A: DC50: < 50 nM; Dmax: > 80%

Q: With `O=C1CC[C@H](N2Cc3c(ccc4c3OCC43CCN(Cc4cccc(-c5cnn(C(F)F)c5)c4)CC3)C2=O)C(=O)N1` [Compound A281, (S)-3-(1′-(3-(1-(difluoromethyl)-1H-pyrazol-4-yl)benzyl)-6-oxo-6,8-dihydro-2H,7H-spiro[furo[2,3-e]isoindole-3,4′-piperidin]-7-yl)piperidine-2,6-dione] as the molecule, how does the DC50 read?
A: Its DC50 is less than 50 nM.

Q: And the Dmax?
A: The Dmax was greater than 80%.

Q: How did the DC50 turn out when `O=C1CC[C@H](N2Cc3c(ccc4c3OCC43CCN(Cc4cccc(-c5cnn(C(F)(F)F)c5)c4)CC3)C2=O)C(=O)N1` [Compound A282, (S)-3-(6-oxo-1′-(3-(1-(trifluoromethyl)-1H-pyrazol-4-yl)benzyl)-6,8-dihydro-2H,7H-spiro[furo[2,3-e]isoindole-3,4′-piperidin]-7-yl)piperidine-2,6-dione] was run?
A: The DC50 was less than 50 nM.

Q: What about the Dmax of the same molecule?
A: Its Dmax is 60 to 80%.

Q: With `Cc1nn(C)cc1-c1cccc(CN2CCC3(CC2)COc2c3ccc3c2CN([C@H]2CCC(=O)NC2=O)C3=O)c1` [Compound A283, (S)-3-(1′-(3-(1,3-dimethyl-1H-pyrazol-4-yl)benzyl)-6-oxo-6,8-dihydro-2H,7H-spiro[furo[2,3-e]isoindole-3,4′-piperidin]-7-yl)piperidine-2,6-dione] as the molecule, how does the DC50 read?
A: The DC50 was 50 to 200 nM.

Q: And the Dmax?
A: Its Dmax is 60 to 80%.

Q: `Cc1c(-c2cccc(CN3CCC4(CC3)COc3c4ccc4c3CN([C@H]3CCC(=O)NC3=O)C4=O)c2)cnn1C` [Compound A284, (S)-3-(1′-(3-(1,5-dimethyl-1H-pyrazol-4-yl)benzyl)-6-oxo-6,8-dihydro-2H,7H-spiro[furo[2,3-e]isoindole-3,4′-piperidin]-7-yl)piperidine-2,6-dione] was tested. Which DC50 did it give?
A: The DC50 was less than 50 nM.

Q: What about the Dmax of the same molecule?
A: Its Dmax is 60 to 80%.

Q: For `O=C1CC[C@H](N2Cc3c(ccc4c3OCC43CCN(Cc4ccc5cn(C6COC6)nc5c4)CC3)C2=O)C(=O)N1` [Compound A285, (S)-3-(1′-((2-(oxetan-3-yl)-2H-indazol-6-yl)methyl)-6-oxo-6,8-dihydro-2H,7H-spiro[furo[2,3-e]isoindole-3,4′-piperidin]-7-yl)piperidine-2,6-dione], which DC50 is on record?
A: Its DC50 is less than 50 nM.

Q: And the Dmax?
A: Its Dmax is 60 to 80%.

Q: What does the source list for `COCCn1cc(-c2cccc(CN3CCC4(CC3)COc3c4ccc4c3CN([C@H]3CCC(=O)NC3=O)C4=O)c2)cn1` [Compound A286, (S)-3-(1′-(3-(1-(2-methoxyethyl)-1H-pyrazol-4-yl)benzyl)-6-oxo-6,8-dihydro-2H,7H-spiro[furo[2,3-e]isoindole-3,4′-piperidin]-7-yl)piperidine-2,6-dione]?
A: DC50: 50 to 200 nM; Dmax: 60 to 80%

Q: For `COCCn1cc2ccc(CN3CCC4(CC3)COc3c4ccc4c3CN([C@H]3CCC(=O)NC3=O)C4=O)cc2n1` [Compound A287, (S)-3-(1′-((2-(2-methoxyethyl)-2H-indazol-6-yl)methyl)-6-oxo-6,8-dihydro-2H,7H-spiro[furo[2,3-e]isoindole-3,4′-piperidin]-7-yl)piperidine-2,6-dione], which DC50 is on record?
A: The DC50 was less than 50 nM.

Q: What about the Dmax of the same molecule?
A: The Dmax was 60 to 80%.

Q: `O=C1CC[C@H](N2Cc3c(ccc4c3OCC43CCN(Cc4ccc5cn(C(F)F)nc5c4)CC3)C2=O)C(=O)N1` [Compound A288, (S)-3-(1′-((2-(difluoromethyl)-2H-indazol-6-yl)methyl)-6-oxo-6,8-dihydro-2H,7H-spiro[furo[2,3-e]isoindole-3,4′-piperidin]-7-yl)piperidine-2,6-dione] was tested. Which DC50 did it give?
A: Its DC50 is less than 50 nM.

Q: And the Dmax?
A: Its Dmax is 60 to 80%.

Q: Which results are given for `O=C1CC[C@H](N2Cc3c(ccc4c3OCC43CCN(Cc4cccc(-c5ccn(C(F)F)n5)c4)CC3)C2=O)C(=O)N1` [Compound A289, (S)-3-(1′-(3-(1-(difluoromethyl)-1H-pyrazol-3-yl)benzyl)-6-oxo-6,8-dihydro-2H,7H-spiro[furo[2,3-e]isoindole-3,4′-piperidin]-7-yl)piperidine-2,6-dione]?
A: DC50: < 50 nM; Dmax: 60 to 80%

Q: What does the source list for `O=C1CC[C@H](N2Cc3c(ccc4c3OCC43CCN(Cc4cccc(-c5cc[nH]n5)c4)CC3)C2=O)C(=O)N1` [Compound A290, (S)-3-(1′-(3-(1H-pyrazol-3-yl)benzyl)-6-oxo-6,8-dihydro-2H,7H-spiro[furo[2,3-e]isoindole-3,4′-piperidin]-7-yl)piperidine-2,6-dione]?
A: DC50: < 50 nM; Dmax: 60 to 80%

Q: `[2H]C([2H])([2H])n1cc(-c2cccc(CN3CCC4(CC3)COc3c4ccc4c3CN([C@H]3CCC(=O)NC3=O)C4=O)c2)cn1` [Compound A291, (S)-3-(1′-(3-(1-(methyl-d3)-1H-pyrazol-4-yl)benzyl)-6-oxo-6,8-dihydro-2H,7H-spiro[furo[2,3-e]isoindole-3,4′-piperidin]-7-yl)piperidine-2,6-dione] was tested. Which DC50 did it give?
A: Its DC50 is less than 50 nM.

Q: And the Dmax?
A: The Dmax was 60 to 80%.

Q: Which DC50 does the source give for `CC(C)(O)Cn1cc(-c2cccc(CN3CCC4(CC3)COc3c4ccc4c3CN([C@H]3CCC(=O)NC3=O)C4=O)c2)cn1` [Compound A292, (S)-3-(1′-(3-(1-(2-hydroxy-2-methylpropyl)-1H-pyrazol-4-yl)benzyl)-6-oxo-6,8-dihydro-2H,7H-spiro[furo[2,3-e]isoindole-3,4′-piperidin]-7-yl)piperidine-2,6-dione] here?
A: The DC50 was less than 50 nM.

Q: And the Dmax?
A: Its Dmax is 60 to 80%.

Q: Which DC50 does the source give for `O=C1CC[C@H](N2Cc3c(ccc4c3OCC43CCN(Cc4cccc(-c5cnn(CCF)c5)c4)CC3)C2=O)C(=O)N1` [Compound A293, (S)-3-(1′-(3-(1-(2-fluoroethyl)-1H-pyrazol-4-yl)benzyl)-6-oxo-6,8-dihydro-2H,7H-spiro[furo[2,3-e]isoindole-3,4′-piperidin]-7-yl)piperidine-2,6-dione] here?
A: Its DC50 is less than 50 nM.

Q: And the Dmax?
A: Its Dmax is 60 to 80%.

Q: Which results are given for `COCn1cc(-c2cccc(CN3CCC4(CC3)COc3c4ccc4c3CN([C@H]3CCC(=O)NC3=O)C4=O)c2)cn1` [Compound A294, (S)-3-(1′-(3-(1-(methoxymethyl)-1H-pyrazol-4-yl)benzyl)-6-oxo-6,8-dihydro-2H,7H-spiro[furo[2,3-e]isoindole-3,4′-piperidin]-7-yl)piperidine-2,6-dione]?
A: DC50: < 50 nM; Dmax: 60 to 80%

Q: For `Cc1c2ccc(CN3CCC4(CC3)COc3c4ccc4c3CN([C@H]3CCC(=O)NC3=O)C4=O)cc2nn1C` [Compound A295, (S)-3-(1′-((2,3-dimethyl-2H-indazol-6-yl)methyl)-6-oxo-6,8-dihydro-2H,7H-spiro[furo[2,3-e]isoindole-3,4′-piperidin]-7-yl)piperidine-2,6-dione], which DC50 is on record?
A: Its DC50 is less than 50 nM.

Q: And the Dmax?
A: The Dmax was 60 to 80%.

Q: `Cn1ncc(-c2cccc(CN3CCC4(CC3)COc3c4ccc4c3CN([C@H]3CCC(=O)NC3=O)C4=O)c2)n1` [Compound A296, (S)-3-(1′-(3-(2-methyl-2H-1,2,3-triazol-4-yl)benzyl)-6-oxo-6,8-dihydro-2H,7H-spiro[furo[2,3-e]isoindole-3,4′-piperidin]-7-yl)piperidine-2,6-dione] was tested. Which DC50 did it give?
A: The DC50 was less than 50 nM.

Q: What about the Dmax of the same molecule?
A: Its Dmax is 60 to 80%.

Q: With `CO[C@H]1C[C@H](n2cc(-c3cccc(CN4CCC5(CC4)COc4c5ccc5c4CN([C@H]4CCC(=O)NC4=O)C5=O)c3)cn2)C1` [Compound A297, (S)-3-(1′-(3-(1-((1r,3r)-3-methoxycyclobutyl)-1H-pyrazol-4-yl)benzyl)-6-oxo-6,8-dihydro-2H,7H-spiro[furo[2,3-e]isoindole-3,4′-piperidin]-7-yl)piperidine-2,6-dione] as the molecule, how does the DC50 read?
A: The DC50 was less than 50 nM.

Q: And the Dmax?
A: The Dmax was 60 to 80%.

Q: `CCn1ncc2ccc(CN3CCC4(CC3)COc3c4ccc4c3CN([C@H]3CCC(=O)NC3=O)C4=O)cc21` [Compound A298, (S)-3-(1′-((1-ethyl-1H-indazol-6-yl)methyl)-6-oxo-6,8-dihydro-2H,7H-spiro[furo[2,3-e]isoindole-3,4′-piperidin]-7-yl)piperidine-2,6-dione] was tested. Which DC50 did it give?
A: Its DC50 is 50 to 200 nM.

Q: And the Dmax?
A: The Dmax was 60 to 80%.

Q: What does the source list for `CCn1cc2ccc(CN3CCC4(CC3)COc3c4ccc4c3CN([C@H]3CCC(=O)NC3=O)C4=O)cc2n1` [Compound A299, (S)-3-(1′-((2-ethyl-2H-indazol-6-yl)methyl)-6-oxo-6,8-dihydro-2H,7H-spiro[furo[2,3-e]isoindole-3,4′-piperidin]-7-yl)piperidine-2,6-dione]?
A: DC50: < 50 nM; Dmax: 60 to 80%

Q: `[2H]C([2H])([2H])n1ncc2ccc(CN3CCC4(CC3)COc3c4ccc4c3CN([C@H]3CCC(=O)NC3=O)C4=O)cc21` [Compound A300, (S)-3-(1′-((1-(methyl-d3)-1H-indazol-6-yl)methyl)-6-oxo-6,8-dihydro-2H,7H-spiro[furo[2,3-e]isoindole-3,4′-piperidin]-7-yl)piperidine-2,6-dione] was tested. Which DC50 did it give?
A: The DC50 was less than 50 nM.

Q: What about the Dmax of the same molecule?
A: Its Dmax is 60 to 80%.

Q: Which results are given for `[2H]C([2H])([2H])n1cc2ccc(CN3CCC4(CC3)COc3c4ccc4c3CN([C@H]3CCC(=O)NC3=O)C4=O)cc2n1` [Compound A301, (S)-3-(1′-((2-(methyl-d3)-2H-indazol-6-yl)methyl)-6-oxo-6,8-dihydro-2H,7H-spiro[furo[2,3-e]isoindole-3,4′-piperidin]-7-yl)piperidine-2,6-dione]?
A: DC50: < 50 nM; Dmax: 60 to 80%

Q: Which DC50 does the source give for `[2H]C([2H])([2H])n1ccc(-c2cccc(CN3CCC4(CC3)COc3c4ccc4c3CN([C@H]3CCC(=O)NC3=O)C4=O)c2)n1` [Compound A302, (S)-3-(1′-(3-(1-(methyl-d3)-1H-pyrazol-3-yl)benzyl)-6-oxo-6,8-dihydro-2H,7H-spiro[furo[2,3-e]isoindole-3,4′-piperidin]-7-yl)piperidine-2,6-dione] here?
A: The DC50 was less than 50 nM.

Q: What about the Dmax of the same molecule?
A: Its Dmax is 60 to 80%.

Q: Which results are given for `O=C1CC[C@H](N2Cc3c(ccc4c3OCC43CCN(Cc4ccc5c(c4)NC(=O)CC5)CC3)C2=O)C(=O)N1` [Compound A303, 3-(6-oxo-1′-((2-oxo-1,2,3,4-tetrahydroquinolin-7-yl)methyl)-6,8-dihydro-2H,7H-spiro[furo[2,3-e]isoindole-3,4′-piperidin]-7-yl)piperidine-2,6-dione]?
A: DC50: 200 to 500 nM; Dmax: 60 to 80%
